What all share (format): functional
For assay [1], the system named is Macrophomina phaseolina. As to the kind of experiment: Fungicidal activity against Macrophomina phaseolina in non-grafted Melon plants cv. 6405 plots assessed as disease incidence exposed to compound at 250 ml/1000 m2 of commercial product applied as soil drench three times during growing season (reference value: 65%).
The subject of assay [2] is Macrophomina phaseolina. As to the kind of experiment: Fungicidal activity against Macrophomina phaseolina assessed as mycelial growth inhibition incubated at 27 degC for 5 days. The following applies: 120 h.
Assay [3] deals with Macrophomina phaseolina. As to the kind of experiment: Fungicidal activity against Macrophomina phaseolina in non-grafted Melon plants cv. 6405 plots assessed as disease incidence exposed to compound at 200 ml/1000 m2 of commercial product applied as soil drench three times during growing season (reference value: 65%).
In assay [4] the test system is Macrophomina phaseolina. As to the kind of experiment: Fungicidal activity against Macrophomina phaseolina in non-grafted Melon plants cv. 6405 plots assessed as disease incidence exposed to compound at 100 ml/1000 m2 of commercial product applied as soil drench three times during growing season (reference value: 65%).
Assay [5] deals with Macrophomina phaseolina. As to the kind of experiment: Fungicidal activity against Macrophomina phaseolina in non-grafted Melon plants cv. 6405 plots infested with Macrophomina phaseolina assessed as disease incidence exposed to compound at 250 ml/1000 m2 of commercial product applied as soil drench to crown zone three times during growing season 21 to 49 days after transplanting (reference value: 23%).

The subject of assay [6] is Macrophomina phaseolina. As to the kind of experiment: Fungicidal activity against Macrophomina phaseolina in non-grafted Melon plants cv. 6405 plots infested with Macrophomina phaseolina assessed as disease incidence exposed to compound at 250 ml/1000 m2 of commercial product applied as soil drench to crown zone 2 times during growing season 44 to 56 days after seeding (reference value: 45%).

Assay [7] deals with Macrophomina phaseolina. As to the kind of experiment: Fungicidal activity against Macrophomina phaseolina in non-grafted Melon plants cv. 6405 plots infested with Macrophomina phaseolina assessed as disease incidence exposed to compound at 250 ml/1000 m2 of commercial product applied as soil drench to crown zone 1 time during growing season 44 to 56 days after seeding (reference value: 45%).

For assay [8], the system named is Macrophomina phaseolina. As to the kind of experiment: Fungicidal activity against Macrophomina phaseolina in non-grafted Melon plants cv. 6405 plots assessed as disease incidence exposed to compound at 350 ml/1000 m2 of commercial product applied as soil drench three times during growing season (reference value: 65%).
In assay [9] the test system is Macrophomina phaseolina. As to the kind of experiment: Fungicidal activity against Macrophomina phaseolina in non-grafted Melon plants cv. 6405 plots assessed as disease incidence exposed to compound at 300 ml/1000 m2 of commercial product applied as soil drench three times during growing season (reference value: 65%).
Assay [10] has as its system Macrophomina phaseolina. As to the kind of experiment: Fungicidal activity against Macrophomina phaseolina in non-grafted Melon plants cv. 6405 plots infested with Macrophomina phaseolina assessed as disease incidence exposed to compound at 40 ml/1000 m2 of commercial product applied as soil drench to crown zone three times during growing season 21 to 49 days after transplanting (reference value: 23%).

The subject of assay [11] is Macrophomina phaseolina. As to the kind of experiment: Fungicidal activity against Macrophomina phaseolina in non-grafted Melon plants cv. 6405 plots infested with Macrophomina phaseolina assessed as disease incidence exposed to compound at 40 ml/1000 m2 of commercial product applied as soil drench to crown zone 2 times during growing season 44 to 56 days after seeding (reference value: 45%).

The term ED50 denotes the dose at which the effect has come halfway, by size or by number of responders. For `OC(Cn1cncn1)(c1ccc(F)cc1)c1ccccc1F` (configuration not stated) [FLUTRIAFOL], the Activity in [1] is on record as 50%. Moreover, in [2], the ED50 stood at 13.1 mg/kg.
Consider `CCCCC(C#N)(Cn1cncn1)c1ccc(Cl)cc1` (configuration not stated) [MYCLOBUTANIL], for which the ED50 in assay [2] was 0.26 mg/kg. In assay [3], the Activity is listed as 45%.
`O=C(Cc1ccccc1)N/C(=N\OCC1CC1)c1c(C(F)(F)F)ccc(F)c1F` [CYFLUFENAMID]: the Activity in assay [4] is recorded as 60%. The ED50 in [2] was less than 0.01 mg/kg.
`CCCN(CCOc1c(Cl)cc(Cl)cc1Cl)C(=O)n1ccnc1` [PROCHLORAZ]: the Activity in assay [1] amounted to 35%. In addition, in assay [2], the ED50 amounted to 0.04 mg/kg.
Regarding `CC(C)NC(=O)N1CC(=O)N(c2cc(Cl)cc(Cl)c2)C1=O` [IPRODIONE], the ED50 in assay [2] turned out to be 0.03 mg/kg. In assay [3], the Activity is 35%.
On to `O=CNC(N1CCN(C(NC=O)C(Cl)(Cl)Cl)CC1)C(Cl)(Cl)Cl` (configuration not stated) [TRIFORINE], for which the Activity in assay [1] is 25%. Moreover, the ED50 in assay [2] was 1 mg/kg.
As for `N#Cc1c(Cl)c(Cl)c(Cl)c(C#N)c1Cl` [CHLOROTHALONIL], in [2], the ED50 came out at 0.61 mg/kg.
In the case of `CO/C=C(/C(=O)OC)c1ccccc1Oc1cc(Oc2ccccc2C#N)ncn1` [AZOXYSTROBIN], the Activity was found to be 3% in assay [5], 5% in assay [6], 15% in [7] and 5% in assay [3]. Besides, in assay [2], the median effective dose (ED50) turned out to be 0.38 mg/kg.
With `O=[N+]([O-])c1cc(C(F)(F)F)c(Cl)c([N+](=O)[O-])c1Nc1ncc(C(F)(F)F)cc1Cl` [FLUAZINAM], the median effective dose (ED50) in assay [2] was less than 0.01 mg/kg.
As for `CCCOC(=O)NCCCN(C)C.Cl` [PROPAMOCARB HYDROCHLORIDE], the Activity in [8] was 30%. The ED50 in assay [2] was found to be 0.9 mg/kg.
Regarding `FC(F)C(F)(F)OCC(Cn1cncn1)c1ccc(Cl)cc1Cl` (configuration not stated) [TETRACONAZOLE], the Activity in [9] was 15%. Besides, the ED50 in [2] is 2.96 mg/kg.
Regarding `COCC(=O)N(c1c(C)cccc1C)[C@H](C)C(=O)OC` [MEFENOXAM], the results for the Activity in assay [10], in [11] and in assay [9] were 10%, 50% and 10%, respectively. The ED50 in assay [2] is more than 10 mg/kg.

Values taken from ChEMBL document CHEMBL3046872, “Management of Macrophomina wilt in melons using grafting or fungicide soil application: Pathological, horticultural and economical aspects” (2012).
